Results from patent US10689354B2, “Aminoazole derivative” (Teijin Pharma Limited, priority 2015, dated 2020).

Experiments:
[1] = molecular target: T1, androgen receptor (AR-LBD) (Rattus norvegicus, UniProt P15207); assay: Evaluation of androgen receptor affinity (PolarScreen Androgen Receptor Competitor Assay Kit, Red; fluorescence polarization); details: 22° C. for 5 hours, relative to binding rate of 1 μM DHT, read-out: AR affinity (pEC50) (converted)
T1 construct: 5 μL of 2×AR-LBD/Fluoromone AL Red Complex contained in the kit; purchased Invitrogen
T1 sequence (P15207 651-882 limits assumed): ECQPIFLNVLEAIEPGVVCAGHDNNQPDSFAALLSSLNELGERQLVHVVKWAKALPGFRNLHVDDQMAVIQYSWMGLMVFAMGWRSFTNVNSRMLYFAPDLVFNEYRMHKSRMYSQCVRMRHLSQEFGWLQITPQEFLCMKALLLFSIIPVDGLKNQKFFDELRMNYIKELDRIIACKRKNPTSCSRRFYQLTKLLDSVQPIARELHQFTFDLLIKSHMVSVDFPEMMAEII
Method in brief: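 Fluorescence polarization competition assay: compound was incubated in duplicate with the kit's AR-LBD/Fluoromone AL Red complex for 5 h at 22 °C. Binding was expressed relative to 1 μM DHT, and pEC50 was derived by 4-parameter fit.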

human androgen receptor = molecular target: T2, human androgen receptor (Homo sapiens, UniProt P10275); assay: Reporter assay of an androgen receptor responsive sequence (luciferase, transiently transfected HEK293 cells); assay type: cell-based; details: 24 hours incubation, relative to activity of 100 nM DHT, read-out: AR transcriptive activity (pEC50) (converted)
T2 construct: expressed in transfected cells; host or cells: HEK293
T2 sequence (P10275 1-920): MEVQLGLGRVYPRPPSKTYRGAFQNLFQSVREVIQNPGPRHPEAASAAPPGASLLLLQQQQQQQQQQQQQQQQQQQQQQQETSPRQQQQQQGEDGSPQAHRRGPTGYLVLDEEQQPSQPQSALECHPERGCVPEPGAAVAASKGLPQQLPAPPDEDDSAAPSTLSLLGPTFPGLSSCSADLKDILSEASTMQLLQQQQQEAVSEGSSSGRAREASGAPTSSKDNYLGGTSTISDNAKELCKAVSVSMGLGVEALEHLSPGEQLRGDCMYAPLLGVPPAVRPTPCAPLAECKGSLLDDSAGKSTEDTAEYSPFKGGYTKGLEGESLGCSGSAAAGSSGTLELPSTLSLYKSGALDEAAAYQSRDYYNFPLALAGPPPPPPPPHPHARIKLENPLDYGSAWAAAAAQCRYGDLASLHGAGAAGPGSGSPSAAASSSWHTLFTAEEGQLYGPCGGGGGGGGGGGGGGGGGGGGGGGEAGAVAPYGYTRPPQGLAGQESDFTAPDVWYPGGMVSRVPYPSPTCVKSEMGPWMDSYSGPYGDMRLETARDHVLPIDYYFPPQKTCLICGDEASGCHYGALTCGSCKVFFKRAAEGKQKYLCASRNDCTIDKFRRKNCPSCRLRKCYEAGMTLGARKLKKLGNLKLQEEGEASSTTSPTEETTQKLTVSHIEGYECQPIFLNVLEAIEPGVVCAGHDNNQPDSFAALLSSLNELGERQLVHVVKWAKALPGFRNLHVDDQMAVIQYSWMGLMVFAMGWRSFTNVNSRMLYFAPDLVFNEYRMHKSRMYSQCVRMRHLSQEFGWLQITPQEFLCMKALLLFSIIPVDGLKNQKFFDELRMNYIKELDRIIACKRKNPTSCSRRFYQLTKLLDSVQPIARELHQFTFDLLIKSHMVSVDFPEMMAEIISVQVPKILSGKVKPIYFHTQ
Method in brief: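 HEK293 cells transiently transfected for 3 h with ARE-firefly luciferase, full-length human AR and TK-Renilla plasmids, then exposed to compound for 24 h at 37 °C in 5% charcoal-treated FBS/DMEM. Dual-Glo luminescence read; pEC50 from 4-parameter fit relative to 100 nM DHT.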

| SMILES | EC50 [1] [µM] | EC50 (human androgen receptor) [µM] |
| --- | --- | --- |
| Cc1sc(N(Cc2ccc(F)c(Cl)c2)c2ccc(C#N)cc2)nc1C(=O)NS(C)(=O)=O [Compound 117, 2-[N-[(3-chloro-4-fluoro-phenyl)methyl]-4-cyano-anilino]-5-methyl-N-methylsulfonyl-thiazole-4-carboxamide] | 0.0251 | 0.0631 |
| COc1cc(Cl)ccc1CN(c1ccc(C#N)cc1)c1nc(C(=O)NS(C)(=O)=O)c(C)s1 [Compound 118, 2-[N-[(4-chloro-2-methoxy-phenyl)methyl]-4-cyano-anilino]-5-methyl-N-methylsulfonyl-thiazole-4-carboxamide] | 0.0501 | 0.398 |
| Cc1sc(N(Cc2ccc(OC(F)(F)F)cc2)c2ccc(C#N)cc2)nc1C(=O)NS(=O)(=O)Cc1cccnc1 [Compound 121, 2-[4-cyano-N-[[4-(trifluoromethoxy)phenyl]methyl]anilino]-5-methyl-N-(3-pyridylmethylsulfonyl)thiazole-4-carboxamide] | 0.0251 | 0.0501 |
| Cc1sc(N(Cc2ccc(F)cc2)c2ccc(C#N)cc2)nc1C(=O)NS(=O)(=O)Cc1cccnc1 [Compound 122, 2-[4-cyano-N-[(4-fluorophenyl)methyl]anilino]-5-methyl-N-(3-pyridylmethylsulfonyl)thiazole-4-carboxamide] | 0.0251 | 0.02 |
| Cc1sc(N(Cc2ccc3c(c2)OCCO3)c2ccc(C#N)cc2)nc1C(=O)NS(C)(=O)=O [Compound 123, 2-[4-cyano-N-(2,3-dihydro-1,4-benzodioxin-6-ylmethyl)anilino]-5-methyl-N-methylsulfonyl-thiazole-4-carboxamide] | 0.0501 | 0.1 |
| Cc1sc(N(Cc2c(F)cccc2F)c2ccc(C#N)cc2)nc1C(=O)NS(C)(=O)=O [Compound 124, 2-[4-cyano-N-[(2,6-difluorophenyl)methyl]anilino]-5-methyl-N-methylsulfonyl-thiazole-4-carboxamide] | 0.0631 | 0.631 |
| Cc1sc(N(Cc2cc(F)c(F)c(F)c2)c2ccc(C#N)cc2)nc1C(=O)NS(C)(=O)=O [Compound 125, 2-[4-cyano-N-[(3,4,5-trifluorophenyl)methyl]anilino]-5-methyl-N-methylsulfonyl-thiazole-4-carboxamide] | 0.0316 | 0.126 |
| Cc1sc(N(Cc2cc(Cl)ccc2F)c2ccc(C#N)cc2)nc1C(=O)NS(C)(=O)=O [Compound 126, 2-[N-[(5-chloro-2-fluoro-phenyl)methyl]-4-cyano-anilino]-5-methyl-N-methylsulfonyl-thiazole-4-carboxamide] | 0.0631 | 0.794 |
| Cc1sc(N(Cc2ccc3c(c2)OCO3)c2ccc(C#N)cc2)nc1C(=O)NS(C)(=O)=O [Compound 128, 2-[N-(1,3-benzodioxol-5-ylmethyl)-4-cyano-anilino]-5-methyl-N-methylsulfonyl-thiazole-4-carboxamide] | 0.0398 | 0.1 |
| Cc1sc(N(Cc2ccc(Br)cc2)c2ccc(C#N)cc2)nc1C(=O)NS(C)(=O)=O [Compound 129, 2-[N-[(4-bromophenyl)methyl]-4-cyano-anilino]-5-methyl-N-methylsulfonyl-thiazole-4-carboxamide] | 0.0398 | 0.02 |
| Cc1sc(N(CCc2cccs2)c2ccc(C#N)cc2)nc1C(=O)NS(C)(=O)=O [Compound 131, 2-[4-cyano-N-[2-(2-thienyl)ethyl]anilino]-5-methyl-N-methylsulfonyl-thiazole-4-carboxamide] | 0.251 | 1 |
| Cc1sc(N(CCc2ccsc2)c2ccc(C#N)cc2)nc1C(=O)NS(C)(=O)=O [Compound 132, 2-[4-cyano-N-[2-(3-thienyl)ethyl]anilino]-5-methyl-N-methylsulfonyl-thiazole-4-carboxamide] | 0.316 | 1.58 |
| Cc1sc(N(CCc2ccc(Cl)cc2)c2ccc(C#N)cc2)nc1C(=O)NS(C)(=O)=O [Compound 133, 2-[N-[2-(4-chlorophenyl)ethyl]-4-cyano-anilino]-5-methyl-N-methylsulfonyl-thiazole-4-carboxamide] | 0.158 | 1.58 |
